From US20240391928A1, “COMPOSITIONS FOR THE TREATMENT OF FOOD AND CHEMICAL ADDICTION AND METHODS OF MAKING AND USING SAME” (Duke University, priority 2021, published 2024)
“Also recorded” adds a separate entry of the source.

Columns and labels:
GPCRome (320 receptors) = assay: PRESTO-Tango GPCRome β-arr2 recruitment screen, other receptors; format: cell-based; details: N8279 1 μM; hit >3-fold
Method: Hits were defined as >3-fold activation above baseline. […] The assay quality was assessed by plotting duplicate, independent trial averages (derived from 4 independent wells) for each receptor as a point (X,Y). The corresponding plot of points for an ideal assay were fit by a regression line with the slope=1.

[1] = target: T1, hGHSR1a^WT in Gαq/11 KO HEK293/S cells (Homo sapiens, UniProt Q92847); assay: iCa2+ in Gαq/11 KO HEK293/S cells; format: cell-based; details: 10 μM ligand
T1 construct: expressed in transfected cells; SRF-RE reporter); HEK293/S Gαq/11 KO and parental WT (iCa2+)
T1 sequence (Q92847 whole entry): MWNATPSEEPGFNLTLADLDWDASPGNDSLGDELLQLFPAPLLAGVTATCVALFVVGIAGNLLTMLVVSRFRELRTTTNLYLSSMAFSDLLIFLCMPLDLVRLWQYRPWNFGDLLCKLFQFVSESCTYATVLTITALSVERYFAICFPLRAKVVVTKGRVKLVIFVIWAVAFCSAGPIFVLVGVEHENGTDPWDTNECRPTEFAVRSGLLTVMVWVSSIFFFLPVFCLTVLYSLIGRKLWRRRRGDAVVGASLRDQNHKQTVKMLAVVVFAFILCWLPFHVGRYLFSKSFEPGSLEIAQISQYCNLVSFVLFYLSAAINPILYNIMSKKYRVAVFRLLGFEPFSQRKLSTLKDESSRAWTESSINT
Method: (§1) For experiments with WT and Gt KO HEK293/S cells, […] of hGHSR1a^WT, 10 μg of miAEQ, and 2.5 μg of pcDNA3.1 was transiently transfected into 10 cm dishes and incubated overnight. […] Twenty-four hours later, experiments proceeded in accordance with the procedures described above. To control for any possible kinetic differences in genetically modified cell lines or GHSR1a variants, the average ligand-induced response over 10 seconds was calculated, then normalized by dividing the L-miAeq by the L-miAeq plus the Lysis-miAeq and normalized to the appropriate control/reference condition.

GHSR1a^E197A [2] = target: T2, GHSR1a^E197A (Homo sapiens, UniProt Q92847, E197A); assay: iCa2+ at E197A mutant; format: cell-based
T2 construct: expressed in transfected cells; host or cells: HEK293/T
T2 sequence (Q92847 whole entry E197A): as the sequence (Q92847 whole entry) above, with E197A counted along it
Method: as §1

GHSR1a^E197A [3] = target: T2, GHSR1a^E197A; assay: TRUPATH Gαq dissociation at E197A mutant; format: cell-based
[4] = Pharmacokinetic analysis in C57BL/6 mice
Method: Pharmacokinetic Analysis. Male C57BL/6 mice were used for pharmacokinetic studies and were purchased from Charles River Laboratories. DAT KO mice were backcrossed for >10 generations onto a C57BL/6J (Jackson Laboratory, Bar Harbor, ME) genetic background. Mice were bred and maintained on a standard 12:12 hour light:dark cycle, socially housed, and supplied with standard laboratory chow and water ad libitum, except during testing. […] Plasma, brain and liver samples were collected over 24 hours. […] The mean concentration from 3 animals at each time-point was used in the pharmacokinetic (PK) analysis. PK parameters were calculated with Phoenix WinNonlin Software (Ver. 8.0, Certara).

C57BL/6J mice [5] = assay: Novelty-induced open-field locomotion in WT mice; format: in vivo, mouse; details: 2.5, 5, 10 mg/kg IP
Method: N=14-17 mice per treatment group.
Novelty-induced locomotor activity in DAT KO and inbred C57BL/6J mice. Open-field locomotor activity in mice was performed similar to that described in Barak et al., ACS Chem Biol. (2016)11(7):1880-90, the disclosure of which is incorporated herein in its entirety. In brief, Age- and sex-matched, littermate DAT KO and inbred C57BL/6J mice between 2-6 months of age were used to measure locomotor activity in an Omnitech Digiscan activity monitor (20×20 cm2; Accuscan Instruments, Columbus, OH). Locomotor activity was measured at 5 minutes intervals.

C57BL/6J mice [6] = assay: Cocaine-induced behavioral sensitization; format: in vivo, mouse; details: N8279 5 mg/kg IP; cocaine 20 mg/kg
Method: Next, cocaine-induced behavioral sensitization was assessed in male and female C57BL/6J mice following subchronic (8-day) administration of the vehicle or N8279 (5 mg/kg, IP) in the home-cage. Subsequently, mice were given the same treatments as described above, followed with an injection (IP) of vehicle or cocaine (20 mg/kg) in the open-field once per day for 5 days (FIG. 4D). A […] hiatus (washout) was imposed and behavioral sensitization was assessed the next day by giving (IP) vehicle or cocaine (challenge). […] By comparison, motor activities were stimulated acutely (day 1) to similar extents in the vehicle+cocaine and N8279+cocaine mice (FIG. 4E). […] Moreover, at challenge (day 11), locomotor activity was augmented relative to day 1 in the vehicle+cocaine mice, whereby no change in activity was evident in the N8279+cocaine mice.
Cocaine Sensitization. Male and female C57BL6/J mice (Jackson Labs, Bar Harbor, ME) were administered (IP) vehicle or N8279 (5 mg/kg) subchronically for 8 consecutive days (once/day) (FIG. 4D). Subsequently, mice were placed into the open-field (Accuscan Instruments, Columbus, OH) for 30 min, they were removed, injected (IP) with vehicle or N8279, returned to the open field for 30 min, then the mice were given (IP) vehicle or cocaine (20 mg/kg) and returned to the open-field for 120 minutes (FIG. 4D). […]

hGHSR1a^A204E [7] = target: T3, hGHSR1a^A204E (Homo sapiens, UniProt Q92847, A204E); details: C/R curve did not saturate
Target sequence in this assay (Q92847 whole entry A204E): as the sequence (Q92847 whole entry) above, with A204E counted along it
Method: BRET-based Gαq Dissociation & β-arr2 Recruitment Assays. TRUPATH Gα dissociation: Gαq/i1/i2/OA/12/13/sS^RLuc8 and Gγ8^GFP2 or Gγ9^GFP2 were transiently co-transfected with human 3×HA-GHSR1a^WT and untagged Gβ3 at a 1:1:1:1 ratio (100 μg each) into monolayers of HEK293/T cells along with 1.6 μg pcDNA3.1. The next morning, media (DMEM supplemented with 10% FBS and antibiotic/antimycotic) was exchanged and after 4-6 hours, cells were plated on white 96-well, clear-bottomed assay plates at a density of 40,000-50,000 cells/well in opti-MEM supplemented with 2% FBS and antibiotic/antimycotic. The next morning, opti-MEM was removed and cells were incubated with 80 μL HBSS supplemented with 20 mM HEPES (pH 7.4) for 4 hours. Cells were then treated with 10 μL of the luminescent substrate, coelenterazine 400a (5 μM final), for 5 minutes at room temperature prior to the addition of 10 μL of test compound. Five minutes after ligand application, luminescence was measured by a Mithras 940 plate reader over 30 minutes and the maximal response was utilized for generating all C/R curves.

hGHSR1a^A204E [8] = target: T3, hGHSR1a^A204E
Target sequence in this assay (Q92847 whole entry A204E): as the sequence (Q92847 whole entry) above, with A204E counted along it
Target sequence in this assay (P32121 whole entry partner): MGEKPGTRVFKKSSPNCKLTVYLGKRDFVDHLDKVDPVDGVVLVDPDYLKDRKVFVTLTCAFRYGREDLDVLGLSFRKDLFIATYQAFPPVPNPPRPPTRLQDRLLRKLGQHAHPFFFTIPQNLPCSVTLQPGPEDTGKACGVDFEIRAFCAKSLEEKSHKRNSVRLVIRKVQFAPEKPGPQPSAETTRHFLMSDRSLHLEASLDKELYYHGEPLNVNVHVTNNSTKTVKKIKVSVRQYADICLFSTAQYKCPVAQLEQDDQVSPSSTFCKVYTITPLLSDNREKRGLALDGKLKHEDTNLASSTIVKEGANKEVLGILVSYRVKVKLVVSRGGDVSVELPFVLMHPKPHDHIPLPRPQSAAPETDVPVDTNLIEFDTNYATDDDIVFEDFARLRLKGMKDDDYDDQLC
Method: (§2) β-arr2 recruitment: In agonist and antagonist assays of NanoBiT-based β-arr2 recruitment, hGHSR1a^WT-Lg^BiT and ^SmBiT-β^WT were transiently co-transfected at a 1:1 ratio (250 μg each) into monolayers of HEK293/T cells on 6-well plates along with 2 μg of pcDNA3.1. For assays employing the Ala204Glu variant, hGHSR1a^A204E-Lg^BiT was transfected at 2×hGHSR1a^WT-Lg^BiT, as performed for iCa^2+ assays with hGHSR1a^A204E described above. For GHSR1a-β-arr2 saturation assays, a fixed amount of hGHSR1a^WT-Lg^BiT cDNA (250 μg) was transfected with 0, 62.5 (1:0.25), 125 (1:0.5), 250 (1:1), 500 (1:2), or 1000 (1:4) μg of ^SmBiTβ-arr^WT. The morning after transfection, media was exchanged and after 4-6 hours, cells were then plated on white 96-well, clear-bottomed assay plates at a density of 45,000 cells/well in opti-MEM supplemented with 2% FBS and antibiotic/antimycotic. The following morning, opti-MEM was removed and cells were incubated with 70-80 μL HBSS supplemented with 20 mM HEPES (pH 7.4) for 4 hours. Cells were then treated with 10 μL of coelenterazine H (5 μM final) for 15-20 minutes at room temperature. Cells were then stimulated with 10 μL of test compounds and 2 minutes later, luminescence was measured over 5 minutes, which encompassed the peak β-arr2 recruitment signal.

hGHSR1a^A204E [9] = target: T3, hGHSR1a^A204E; assay: NanoBiT β-arr2 recruitment at A204E variant; details: did not reach saturation
Target sequence in this assay (Q92847 whole entry A204E): as the sequence (Q92847 whole entry) above, with A204E counted along it
Target sequence in this assay (P32121 whole entry partner): as the sequence (P32121 whole entry partner) above
Method: as §2

hGHSR1a^WT = hGHSR1a^WT (Homo sapiens, UniProt Q92847); details: 100 nM, 45 minutes
hGHSR1a^WT, sequence (Q92847 whole entry): as the sequence (Q92847 whole entry) above
Method: U2OS cells stably expressing the human GHSR1a^WT and β-arr2^GFP were seeded onto 35 mm MatTek (Ashland, MA, USA) glass coverslip dishes in opti-MEM supplemented with 2% FBS and antibiotic-antimycotic and grown overnight in a humified incubator (5% CO2, 37° C.). The next morning, media was aspirated and replaced with fresh, serum-free opti-MEM (supplemented with antibiotic-antimycotic). […] Next, treatment was terminated by aspiration of media, a PBS wash, and fixation with 4% paraformaldehyde (20 minutes, room temperature (RT)). Fixed cells were either stored at 4° C. or immediately imaged for β-arr2^GFP translocation with a Zeiss LSM 510 meta confocal microscopy.

COc1ccc(C(=O)c2c(C(=O)NCCCN(C)C)oc3ccc(Cl)cc3c2=O)cc1OC [Example N8279, 6-Chloro-3-(3,4-dimethoxybenzoyl)-N-(3-(dimethylamino)propyl)-4-oxo-4H-chromene-2-carboxamide]
activation above baseline at any other GPCR (GPCRome (320 receptors)): ≤ 3 fold
agonist-induced iCa2+ in Gαq/11 KO cells [1]: abolished
iCa2+ potency reduction at GHSR1a^E197A (GHSR1a^E197A [2]): ~3 fold
Gαq dissociation potency reduction at GHSR1a^E197A (GHSR1a^E197A [3]): ~10 fold
brain:plasma ratio ([4]; IP): 0.6-0.9
AUCextrap ([4]; IP 5 mg/kg, brain): 7.1%
AUC ratio (tissue/plasma) ([4]; IP 5 mg/kg, brain/plasma): 0.6
AUCextrap ([4]; IP 5 mg/kg, liver): 0.1%
AUC ratio (tissue/plasma) ([4]; IP 5 mg/kg, liver/plasma): 49
AUCextrap ([4]; IP 5 mg/kg, plasma): 0.6%
AUCextrap ([4]; IV 1 mg/kg, brain): 10%
AUC ratio (tissue/plasma) ([4]; IV 1 mg/kg, brain/plasma): 0.8
AUCextrap ([4]; IV 1 mg/kg, liver): 0.2%
AUC ratio (tissue/plasma) ([4]; IV 1 mg/kg, liver/plasma): 40
AUCextrap ([4]; IV 1 mg/kg, plasma): 2.4%
AUCextrap ([4]; PO 5 mg/kg, brain): 24%
AUC ratio (tissue/plasma) ([4]; PO 5 mg/kg, brain/plasma): 0.9
AUCextrap ([4]; PO 5 mg/kg, liver): 0.1%
AUC ratio (tissue/plasma) ([4]; PO 5 mg/kg, liver/plasma): 77
AUCextrap ([4]; PO 5 mg/kg, plasma): 11%
brain half-life (t1/2) after IP and PO administration ([4]; brain, IP and PO 5 mg/kg): 6.6 to 11 h
bioavailability ([4]; male, C57BL/6, mouse, in vivo, ip, 5 mg/kg): 27%
AUC(0-t) ([4]; male, C57BL/6, mouse, liver, iv, 1 mg/kg): 57100 ng·h/mL
Cmax ([4]; read-out: peak concentration (Cmax) in brain, IP 5 mg/kg, brain): 259 nM
novelty-induced open-field locomotion in words (C57BL/6J mice [5]): No statistically significant differences; also recorded: did not affect
cocaine-induced behavioral sensitization in words (C57BL/6J mice [6]): delayed the appearance of sensitization across days and abrogated the expression of sensitization following washout
Gαq dissociation potency reduction at GHSR1a^A204E vs WT (hGHSR1a^A204E [7]): > 20 fold
Emax (hGHSR1a^A204E [8]): ~35%
β-arr2 recruitment potency reduction at GHSR1a^A204E vs WT (hGHSR1a^A204E [9]): > 20 fold
β-arr2^GFP translocation in words (hGHSR1a^WT): minimal response
